PubChem BioAssay (NCI)
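How tested: cells in 96-well plates exposed to compound for 48 hours at five concentrations. At the TGI there is no net growth.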

system: SK-MEL-2 melanoma; experiment: inhibition of tumour cell growth, NCI panel, 48 h

SMILES	TGI
C=C1C[C@@H]2O[C@H]3[C@H]4[C@@H](C[C@@H](C)[C@@H](OC(C)=O)[C@H]42)[C@@H](C)CO[C@@]3(C)[C@H](OC(C)=O)C[C@H]1O	> 100 µM
C[N+](C)([O-])CCC=C1c2ccccc2CCc2ccccc21	36.8 µM
O=C(O)c1nc(-c2ccccc2)ncc1-c1nnnn1-c1ccccc1	> 100 µM

system: SK-MEL-28 melanoma; experiment: inhibition of tumour cell growth, NCI panel, 48 h

SMILES	TGI
Oc1[nH]c2ccccc2c1N=Nc1ccccc1Cl	> 100 µM
C=C1C[C@@H]2O[C@H]3[C@H]4[C@@H](C[C@@H](C)[C@@H](OC(C)=O)[C@H]42)[C@@H](C)CO[C@@]3(C)[C@H](OC(C)=O)C[C@H]1O	> 100 µM
C[N+](C)([O-])CCC=C1c2ccccc2CCc2ccccc21	98.7 µM
O=C(O)c1nc(-c2ccccc2)ncc1-c1nnnn1-c1ccccc1	> 100 µM

system: SK-MEL-5 melanoma; experiment: inhibition of tumour cell growth, NCI panel, 48 h

SMILES	TGI
Oc1[nH]c2ccccc2c1N=Nc1ccccc1Cl	> 100 µM
C=C1C[C@@H]2O[C@H]3[C@H]4[C@@H](C[C@@H](C)[C@@H](OC(C)=O)[C@H]42)[C@@H](C)CO[C@@]3(C)[C@H](OC(C)=O)C[C@H]1O	> 100 µM
C[N+](C)([O-])CCC=C1c2ccccc2CCc2ccccc21	34.3 µM
O=C(O)c1nc(-c2ccccc2)ncc1-c1nnnn1-c1ccccc1	> 100 µM

system: SK-OV-3 ovarian; experiment: inhibition of tumour cell growth, NCI panel, 48 h

SMILES	TGI
Oc1[nH]c2ccccc2c1N=Nc1ccccc1Cl	64.5 µM
C=C1C[C@@H]2O[C@H]3[C@H]4[C@@H](C[C@@H](C)[C@@H](OC(C)=O)[C@H]42)[C@@H](C)CO[C@@]3(C)[C@H](OC(C)=O)C[C@H]1O	> 100 µM
C[N+](C)([O-])CCC=C1c2ccccc2CCc2ccccc21	> 100 µM
O=C(O)c1nc(-c2ccccc2)ncc1-c1nnnn1-c1ccccc1	> 100 µM

system: SN12C renal; experiment: inhibition of tumour cell growth, NCI panel, 48 h

SMILES	TGI
Oc1[nH]c2ccccc2c1N=Nc1ccccc1Cl	97.7 µM
C=C1C[C@@H]2O[C@H]3[C@H]4[C@@H](C[C@@H](C)[C@@H](OC(C)=O)[C@H]42)[C@@H](C)CO[C@@]3(C)[C@H](OC(C)=O)C[C@H]1O	> 100 µM
C[N+](C)([O-])CCC=C1c2ccccc2CCc2ccccc21	62.9 µM
O=C(O)c1nc(-c2ccccc2)ncc1-c1nnnn1-c1ccccc1	> 100 µM

system: SNB-19 CNS; experiment: inhibition of tumour cell growth, NCI panel, 48 h

SMILES	TGI
Oc1[nH]c2ccccc2c1N=Nc1ccccc1Cl	> 83.6 µM
C=C1C[C@@H]2O[C@H]3[C@H]4[C@@H](C[C@@H](C)[C@@H](OC(C)=O)[C@H]42)[C@@H](C)CO[C@@]3(C)[C@H](OC(C)=O)C[C@H]1O	> 100 µM
C[N+](C)([O-])CCC=C1c2ccccc2CCc2ccccc21	> 100 µM
O=C(O)c1nc(-c2ccccc2)ncc1-c1nnnn1-c1ccccc1	> 100 µM

system: SNB-75 CNS; experiment: inhibition of tumour cell growth, NCI panel, 48 h

SMILES	TGI
Oc1[nH]c2ccccc2c1N=Nc1ccccc1Cl	> 79.6 µM
C=C1C[C@@H]2O[C@H]3[C@H]4[C@@H](C[C@@H](C)[C@@H](OC(C)=O)[C@H]42)[C@@H](C)CO[C@@]3(C)[C@H](OC(C)=O)C[C@H]1O	> 100 µM
C[N+](C)([O-])CCC=C1c2ccccc2CCc2ccccc21	75.4 µM
O=C(O)c1nc(-c2ccccc2)ncc1-c1nnnn1-c1ccccc1	> 100 µM

system: SR leukemia; experiment: inhibition of tumour cell growth, NCI panel, 48 h

SMILES	TGI
Oc1[nH]c2ccccc2c1N=Nc1ccccc1Cl	34.3 µM
C=C1C[C@@H]2O[C@H]3[C@H]4[C@@H](C[C@@H](C)[C@@H](OC(C)=O)[C@H]42)[C@@H](C)CO[C@@]3(C)[C@H](OC(C)=O)C[C@H]1O	> 100 µM
C[N+](C)([O-])CCC=C1c2ccccc2CCc2ccccc21	39.3 µM
O=C(O)c1nc(-c2ccccc2)ncc1-c1nnnn1-c1ccccc1	> 100 µM

system: SW-620 colon; experiment: inhibition of tumour cell growth, NCI panel, 48 h

SMILES	TGI
Oc1[nH]c2ccccc2c1N=Nc1ccccc1Cl	> 100 µM
C=C1C[C@@H]2O[C@H]3[C@H]4[C@@H](C[C@@H](C)[C@@H](OC(C)=O)[C@H]42)[C@@H](C)CO[C@@]3(C)[C@H](OC(C)=O)C[C@H]1O	> 100 µM
C[N+](C)([O-])CCC=C1c2ccccc2CCc2ccccc21	62.3 µM
O=C(O)c1nc(-c2ccccc2)ncc1-c1nnnn1-c1ccccc1	> 100 µM

system: T-47D breast; experiment: inhibition of tumour cell growth, NCI panel, 48 h

SMILES	TGI
Oc1[nH]c2ccccc2c1N=Nc1ccccc1Cl	> 100 µM
C=C1C[C@@H]2O[C@H]3[C@H]4[C@@H](C[C@@H](C)[C@@H](OC(C)=O)[C@H]42)[C@@H](C)CO[C@@]3(C)[C@H](OC(C)=O)C[C@H]1O	> 100 µM
C[N+](C)([O-])CCC=C1c2ccccc2CCc2ccccc21	77.7 µM
O=C(O)c1nc(-c2ccccc2)ncc1-c1nnnn1-c1ccccc1	> 100 µM

system: TK-10 renal; experiment: inhibition of tumour cell growth, NCI panel, 48 h

SMILES	TGI
Oc1[nH]c2ccccc2c1N=Nc1ccccc1Cl	32.8 µM
C=C1C[C@@H]2O[C@H]3[C@H]4[C@@H](C[C@@H](C)[C@@H](OC(C)=O)[C@H]42)[C@@H](C)CO[C@@]3(C)[C@H](OC(C)=O)C[C@H]1O	> 100 µM
C[N+](C)([O-])CCC=C1c2ccccc2CCc2ccccc21	> 100 µM
O=C(O)c1nc(-c2ccccc2)ncc1-c1nnnn1-c1ccccc1	> 100 µM

system: U251 CNS; experiment: inhibition of tumour cell growth, NCI panel, 48 h

SMILES	TGI
Oc1[nH]c2ccccc2c1N=Nc1ccccc1Cl	47.4 µM
C=C1C[C@@H]2O[C@H]3[C@H]4[C@@H](C[C@@H](C)[C@@H](OC(C)=O)[C@H]42)[C@@H](C)CO[C@@]3(C)[C@H](OC(C)=O)C[C@H]1O	> 100 µM
C[N+](C)([O-])CCC=C1c2ccccc2CCc2ccccc21	33.8 µM
O=C(O)c1nc(-c2ccccc2)ncc1-c1nnnn1-c1ccccc1	> 100 µM

system: UACC-257 melanoma; experiment: inhibition of tumour cell growth, NCI panel, 48 h

SMILES	TGI
Oc1[nH]c2ccccc2c1N=Nc1ccccc1Cl	> 100 µM
C=C1C[C@@H]2O[C@H]3[C@H]4[C@@H](C[C@@H](C)[C@@H](OC(C)=O)[C@H]42)[C@@H](C)CO[C@@]3(C)[C@H](OC(C)=O)C[C@H]1O	> 100 µM
C[N+](C)([O-])CCC=C1c2ccccc2CCc2ccccc21	> 100 µM
O=C(O)c1nc(-c2ccccc2)ncc1-c1nnnn1-c1ccccc1	> 100 µM

system: UACC-62 melanoma; experiment: inhibition of tumour cell growth, NCI panel, 48 h

SMILES	TGI
Oc1[nH]c2ccccc2c1N=Nc1ccccc1Cl	> 100 µM
C=C1C[C@@H]2O[C@H]3[C@H]4[C@@H](C[C@@H](C)[C@@H](OC(C)=O)[C@H]42)[C@@H](C)CO[C@@]3(C)[C@H](OC(C)=O)C[C@H]1O	> 100 µM
C[N+](C)([O-])CCC=C1c2ccccc2CCc2ccccc21	41.2 µM
O=C(O)c1nc(-c2ccccc2)ncc1-c1nnnn1-c1ccccc1	> 100 µM

system: UO-31 renal; experiment: inhibition of tumour cell growth, NCI panel, 48 h

SMILES	TGI
Oc1[nH]c2ccccc2c1N=Nc1ccccc1Cl	> 100 µM
C=C1C[C@@H]2O[C@H]3[C@H]4[C@@H](C[C@@H](C)[C@@H](OC(C)=O)[C@H]42)[C@@H](C)CO[C@@]3(C)[C@H](OC(C)=O)C[C@H]1O	> 100 µM
O=C(O)c1nc(-c2ccccc2)ncc1-c1nnnn1-c1ccccc1	> 100 µM
